In paper PMC12251307, “One-Pot Synthesis of Novel Pyrimidine Derivatives with Potential Antidiabetic Activity Through Dual α-Glucosidase and α-Amylase Inhibitors” (Molecules, 2025):

How the values were obtained:
α-amylase = α-amylase activity assay (colorimetric kit); type: biochemical; conditions: IC50 ± SD, n = 5; acarbose as standard drug
Experimental: (§1) All chemicals were supplied from Sigma-Aldrich (St. Louis, MO, USA). Melting points were determined via the Stuart SMP10 Digital Advanced MP apparatus (Cole-Parmer Ltd., Stone, UK) and are uncorrected. FTIR spectra were carried out on PerkinElmer (FTIR spectrometer, PerkinElmer Inc., Waltham, MA, USA), which mixed without using anhydrous KBr. The NMR spectra were recorded by JEOL RESONANCE spectrometer (Akishima, Japan) 500 MHZ by using DMSO-d6 as the solvent and chemical shifts (δ) and were recorded in parts per million (ppm) using tetramethyl silane (TMS) as the internal standard. The mass spectra were carried out on LC/MS spectroscopy (LCMS-8040 Shimadzu, Kyoto, Japan, model CAT-30A). Serial no. L20574900241 AE, 220–240 v~50/60 HZ 300 VA was used to record LCMS spectral data for samples. Elemental microanalysis was done on a Carlo Erba analyzer model 110 (Carlo Erba Instruments, Milan, Italy). Also used were α-amylase Assay Kit (Colorimetric) […] (Abcam, Cambridge, MA, USA), α-glucosidase Activity Assay Kit (Colorimetric) […] (Abcam, Cambridge, MA, USA), and Elisa: BioTek (Winooski, VT, USA) introduces Synergy Neo2 high performance Multi-Mode Microplate Reader.
The % inhibition was calculated as follows:% Inhibition = (Absorbancecontrol − Absorbancecompound) × 100/Absorbancecontrol

α-glucosidase = α-glucosidase activity assay (colorimetric kit); type: biochemical; conditions: IC50 ± SD, n = 5; acarbose as standard drug
Experimental: as §1
The α-glucosidase activity assay was conducted as we reported earlier. Samples (50 μL) were added to 96 wells, and the volume was adjusted to 100 μL/well with an assay buffer. For the reaction, 50 μL of reaction mix for each reaction were performed by adding assay buffer 47 μL and substrate mix 3 μL.

Structure (SMILES) | IC50 (α-amylase) [µM] | IC50 (α-glucosidase) [µM]
COc1cccc(NC(=S)NNc2cc(OC)nc(N)n2)c1 [Compound 14, 2-(2-Amino-6-methoxypyrimidin-4-yl)-N-(3-methoxyphenyl)-hydrazine Carbothioamide] | 33.18 ± 0.14 | 30.12 ± 0.13
COc1cc(NNC(=S)Nc2ccc(C)cc2)nc(N)n1 [Compound 16, 2-(2-Amino-6-methoxypyrimidin-4-yl)-N-(p-tolyl)hydrazine Carbothioamide] | 34.24 ± 0.16 | 36.14 ± 0.12
COc1cc(NNC(=S)Nc2cccc(Br)c2)nc(N)n1 [Compound 9, 2-(2-Amino-6-methoxypyrimidin-4-yl)-N-(3-bromophenyl)-hydrazine Carbothioamide] | 18.16 ± 0.08 | 19.11 ± 0.11
COc1cc(NNC(=S)Nc2cccc(C#N)c2)nc(N)n1 [Compound 17, 2-(2-Amino-6-methoxypyrimidin-4-yl)-N-(3-cyanophenyl)hydrazine Carbothioamide] | 40.16 ± 0.11 | 42.19 ± 0.13
COc1cc(NNC(=S)Nc2cccc(Cl)c2)nc(N)n1 [Compound 6, 2-(2-Amino-6-methoxypyrimidin-4-yl)-N-(3-chlorophenyl) Hydrazine Carbothioamide] | 15.17 ± 0.07 | 16.13 ± 0.11
COc1cc(NNC(=S)Nc2cccc(F)c2)nc(N)n1 [Compound 4, 2-(2-Amino-6-methoxypyrimidin-4-yl)-N-(3-fluorophenyl)hydrazine Carbothioamide] | 11.1 ± 0.12 | 12.16 ± 0.12
COc1cc(NNC(=S)Nc2cccc([N+](=O)[O-])c2)nc(N)n1 [Compound 11, 2-(2-Amino-6-methoxypyrimidin-4-yl)-N-(3-nitrophenyl)hydrazine Carbothioamide] | 21.14 ± 0.12 | 22.11 ± 0.13
